In brackets after ≈: the same amount, converted by molar mass. Where two headings read alike, the source gives them in different places.
Legend:
[1] = system: S. gordonii; experiment: Bacterial susceptibility assay (microdilution, planktonic); type: cell-based, Streptococcus gordonii DL1; details: Streptococcus gordonii
Description: Streptococcus mutans UA159, Streptococcus gordonii DL1 and Streptococcus sanguinis ATCC10556 were obtained from the State Key Laboratory of Oral Diseases (Sichuan University, Chengdu, China). All strains were routinely cultured in brain heart infusion broth (BHI; Difco, Sparks, MD) under anaerobic conditions (5% CO2) at 37°C. For biofilm formation, bacteria were cultured in BHI broth supplied with 1% sucrose (designated BHIS).
The minimum inhibitory concentration (MIC) and minimum bactericidal concentration (MBC) of II-6s against S. mutans, S. gordonii, and S. sanguinis were measured by a microdilution method in BHI as described previously. The bacterial inoculum for the experiment was adjusted to 1 × 10^7 colony-forming units (CFU)/ml for S. mutans, S. gordonii, and S. sanguinis based on the optical density at 600 nm (OD600) versus a CFU/ml graph of each bacterium. Bacterial suspension was added to 96-well microtiter plates which were supplemented with serially diluted concentrations of II-6s ranging from 0.98 to 500 μg/ml. Each plate also included CHX ranging from 0.98 to 500 μg/ml as a positive control, test bacteria and BHI broth as a negative control, BHI broth containing equivalent DMSO (0.5% to 0.001%, ν/ν) as a solvent control and a blank control. […] The lowest concentration of the test solutions that allowed no visible growth on a BHI agar plate was taken as MBC. The experiment was performed in triplicates and repeated at least three times.

[2] = system: 3-species streptococcal biofilms on bovine enamel slabs; experiment: Transverse microradiography of biofilm-induced demineralization on bovine enamel slabs; type: cell-based; details: for biofilm-induced demineralization of enamel slabs (lesion depth, mineral loss): vs PBS control, 5 days, 5 min three times per day
Text: The labial dental crown of bovine incisors was cut into 5 mm × 5 mm × 4 mm by a diamond-coated band saw with continuous water cooling (Struers Minitom; Struers, Copenhagen, Denmark). These bovine specimens were embedded in polymethylmethacrylate and labial enamel surfaces were ground flat with water-cooled carborundum discs of waterproof silicon carbide paper (Struers) of various grits (1,000, 1,200, 2,400, 3,000 and 4,000). Then, enamel blocks were painted with two layers of acid-resistant nail varnish, leaving a 4 × 4 mm window exposed on the labial enamel surface. These specimens were measured by the […] hardness test (Zwick, Ulm, Germany) and those in the range from 314.6 to 382.4 Knoop Hardness Numbers were selected for the demineralization assessment. All the polished samples were sonicated in distilled water for 5 min to remove the residual abrasives and sterilized in an ethylene oxide sterilizer (AnproleneAN 74i, Andersen, Haw River, NC, USA).
An amount of 2 ml bacterial suspension solution contained S. mutans, S. gordonii and S. sanguinis (1 × 10^7 CFU/ml for each bacterium) was added to each well of a 12-well plate with a bovine sample, which was cultured anaerobically in a BHIS medium at 37°C (5% CO2) for 24 h. The specimens were treated with PBS, 0.2% of CHX or different concentrations of II-6s (15.63 to 125 μg/ml) for 5 days (5 min, three times per day). The pH of all experimental solutions was adjusted to 7.0 before treatment. All specimens were washed with PBS and refreshed with BHIS after every exposure. After 5 days of incubation, samples were rinsed with distilled water to remove the remaining biofilms, then cut again and polished with waterproof silicon carbide abrasive papers (800–4,000 grit; Struers, Copenhagen, Denmark) to a thickness around 100 μm. […] Quantitative data of mineral loss and lesion depth were acquired by a calibrated analysis system TMR2006 (Inspektor Research Systems BV, Netherlands). […]

[3] = S. gordonii, planktonic, BHI medium

| Compound | MBC [1, 3] [µg/mL] | MIC ([1]; S. gordonii, planktonic, BHI medium, read-out: MIC) [µg/mL] | biofilm-induced demineralization of enamel slabs (lesion depth, mineral loss) [2] | MIC [1] [µg/mL] | inhibitory effect on biofilm-induced demineralization ([2]; II-6s 31.25 to 125 μg/ml, vs 0.2% of CHX) |
| --- | --- | --- | --- | --- | --- |
| [H]/N=C(\N/C(=N/[H])NCCCCCCNC(=N)NC(=N)Nc1ccc(Cl)cc1)Nc1ccc(Cl)cc1 [CHX, Chlorhexidine digluconate, reference compound] | 7.81 | 3.91 | significantly reduced the demineralization |  |  |
| CC(C)(Cc1ccc2ccccc2c1)NC[C@H](O)CNc1cc(C(F)(F)F)cc(C(F)(F)F)c1 [II-6s, (S)-1-((3,5-bis(trifluoromethyl)phenyl)amino)-3-((2-methyl-1-(naphthalen-2-yl)propan-2-yl)amino)propan-2-ol] | 15.6 (≈ 32.3 µM) |  | significantly reduced the demineralization | 3.91 (≈ 8.07 µM) | equivalent inhibitory effect on the biofilm-induced demineralization as compared to 0.2% of CHX |
